The supplement of paper PMC10307832

How the values were obtained:
Assay in all cases: relative viability (nuclei count vs DMSO), 5 days (fraction); higher = more cells survive
[1] = system: COR-L23
Method in brief: (§1)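 Relative viability equals treated-well nuclei counts divided by vehicle-well nuclei counts. Counts came from 4× images of lung cancer cell lines grown in 1536-well plates for 5 days after pin-tool dosing on the day after seeding. Dosing used one drug alone or a fixed anchor-drug dose plus five library-drug doses (not always all listed) in √10 steps, and values are medians of duplicate plates.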

[2] = system: NCI-H2023
Method in brief: as §1

[3] = system: NCI-H1993
Method in brief: as §1

[4] = system: NCI-H1734
Method in brief: as §1

[5] = system: PC-14
Method in brief: as §1

[6] = system: RERF-LC-KJ
Method in brief: as §1

[7] = system: ABC-1
Method in brief: as §1

[8] = system: NCI-H2085
Method in brief: as §1

[9] = system: NCI-H520
Method in brief: as §1

[10] = system: NCI-H2170
Method in brief: as §1

[11] = system: NCI-H3122
Method in brief: as §1

[12] = system: EPLC-272H
Method in brief: as §1

[13] = system: 201T
Method in brief: as §1

[14] = system: NCI-H441
Method in brief: as §1

[15] = system: EKVX
Method in brief: as §1

[16] = system: NCI-H1650
Method in brief: as §1

[17] = system: NCI-H2405
Method in brief: as §1

[18] = system: NCI-H2347
Method in brief: as §1

[19] = system: NCI-H1563
Method in brief: as §1

[20] = system: NCI-H647
Method in brief: as §1

[21] = system: LOU-NH91
Method in brief: as §1

[22] = system: HCC-44
Method in brief: as §1

Compound: Clc1ccc(Nc2nnc(Cc3ccncc3)c3ccccc23)cc1 [Vatalanib] + C[C@@H](Oc1cc(-c2cnn(C3CCNCC3)c2)cnc1N)c1c(Cl)ccc(F)c1Cl [Crizotinib] (partner 1 µM)
- relative viability ([1]; first compound 0.04 µM): 0.7
- relative viability ([1]; first compound 0.1265 µM): 0.558
- relative viability ([1]; first compound 0.4 µM): 0.668
- relative viability ([1]; first compound 1.265 µM): 0.683
- relative viability ([1]; first compound 4 µM): 0.632
- relative viability ([2]; first compound 0.04 µM): 0.571
- relative viability ([2]; first compound 0.1265 µM): 0.667
- relative viability ([2]; first compound 0.4 µM): 0.698
- relative viability ([2]; first compound 1.265 µM): 0.605
- relative viability ([2]; first compound 4 µM): 0.559
- relative viability ([3]; first compound 0.04 µM): 0.948
- relative viability ([3]; first compound 0.1265 µM): 0.853
- relative viability ([3]; first compound 0.4 µM): 0.935
- relative viability ([3]; first compound 1.265 µM): 0.805
- relative viability ([3]; first compound 4 µM): 0.846
- relative viability ([4]; first compound 0.04 µM): 0.714
- relative viability ([4]; first compound 0.1265 µM): 0.645
- relative viability ([4]; first compound 0.4 µM): 0.796
- relative viability ([4]; first compound 1.265 µM): 0.694
- relative viability ([4]; first compound 4 µM): 0.57
- relative viability ([5]; first compound 0.04 µM): 0.976
- relative viability ([5]; first compound 0.1265 µM): 0.916
- relative viability ([5]; first compound 0.4 µM): 0.956
- relative viability ([5]; first compound 1.265 µM): 0.825
- relative viability ([5]; first compound 4 µM): 0.865
- relative viability ([6]; first compound 0.04 µM): 0.881
- relative viability ([6]; first compound 0.1265 µM): 0.766
- relative viability ([6]; first compound 0.4 µM): 0.88
- relative viability ([6]; first compound 1.265 µM): 0.792
- relative viability ([6]; first compound 4 µM): 0.799
- relative viability ([7]; first compound 0.04 µM): 1.01
- relative viability ([7]; first compound 0.1265 µM): 1
- relative viability ([7]; first compound 0.4 µM): 1.37
- relative viability ([7]; first compound 1.265 µM): 0.89
- relative viability ([7]; first compound 4 µM): 1.13
- relative viability ([8]; first compound 0.04 µM): 0.754
- relative viability ([8]; first compound 0.1265 µM): 0.779
- relative viability ([8]; first compound 0.4 µM): 1.04
- relative viability ([8]; first compound 1.265 µM): 0.787
- relative viability ([8]; first compound 4 µM): 0.888
- relative viability ([9]; first compound 0.04 µM): 0.667
- relative viability ([9]; first compound 0.1265 µM): 0.849
- relative viability ([9]; first compound 0.4 µM): 0.824
- relative viability ([9]; first compound 1.265 µM): 0.614
- relative viability ([9]; first compound 4 µM): 0.696
- relative viability ([10]; first compound 0.04 µM): 1.22
- relative viability ([10]; first compound 0.1265 µM): 1.21
- relative viability ([10]; first compound 0.4 µM): 1.18
- relative viability ([10]; first compound 1.265 µM): 1.06
- relative viability ([10]; first compound 4 µM): 1.04
- relative viability ([11]; first compound 0.04 µM): 0.25
- relative viability ([11]; first compound 0.1265 µM): 0.274
- relative viability ([11]; first compound 0.4 µM): 0.269
- relative viability ([11]; first compound 1.265 µM): 0.249
- relative viability ([11]; first compound 4 µM): 0.288
- relative viability ([12]; first compound 0.04 µM): 0.836
- relative viability ([12]; first compound 0.1265 µM): 0.779
- relative viability ([12]; first compound 0.4 µM): 0.965
- relative viability ([12]; first compound 1.265 µM): 0.919
- relative viability ([12]; first compound 4 µM): 0.955
- relative viability ([13]; first compound 0.04 µM): 1
- relative viability ([13]; first compound 0.1265 µM): 1.07
- relative viability ([13]; first compound 0.4 µM): 1.03
- relative viability ([13]; first compound 1.265 µM): 0.991
- relative viability ([13]; first compound 4 µM): 1.07
- relative viability ([14]; first compound 0.04 µM): 0.851
- relative viability ([14]; first compound 0.1265 µM): 0.605
- relative viability ([14]; first compound 0.4 µM): 0.72
- relative viability ([14]; first compound 1.265 µM): 0.835
- relative viability ([14]; first compound 4 µM): 0.831
- relative viability ([15]; first compound 0.04 µM): 0.993
- relative viability ([15]; first compound 0.1265 µM): 0.9
- relative viability ([15]; first compound 0.4 µM): 1.11
- relative viability ([15]; first compound 1.265 µM): 1.02
- relative viability ([15]; first compound 4 µM): 0.921
- relative viability ([16]; first compound 0.04 µM): 0.933
- relative viability ([16]; first compound 0.1265 µM): 0.997
- relative viability ([16]; first compound 0.4 µM): 1.06
- relative viability ([16]; first compound 1.265 µM): 0.92
- relative viability ([16]; first compound 4 µM): 1.05
- relative viability ([17]; first compound 0.04 µM): 0.896
- relative viability ([17]; first compound 0.1265 µM): 0.79
- relative viability ([17]; first compound 0.4 µM): 0.932
- relative viability ([17]; first compound 1.265 µM): 0.816
- relative viability ([17]; first compound 4 µM): 0.82
- relative viability ([18]; first compound 0.04 µM): 0.642
- relative viability ([18]; first compound 0.1265 µM): 0.69
- relative viability ([18]; first compound 0.4 µM): 0.654
- relative viability ([18]; first compound 1.265 µM): 0.817
- relative viability ([18]; first compound 4 µM): 0.732
- relative viability ([19]; first compound 0.04 µM): 0.848
- relative viability ([19]; first compound 0.1265 µM): 0.754
- relative viability ([19]; first compound 0.4 µM): 0.961
- relative viability ([19]; first compound 1.265 µM): 0.818
- relative viability ([19]; first compound 4 µM): 0.859
- relative viability ([20]; first compound 0.04 µM): 0.92
- relative viability ([20]; first compound 0.1265 µM): 1.07
- relative viability ([20]; first compound 0.4 µM): 1.31
- relative viability ([20]; first compound 1.265 µM): 0.977
- relative viability ([20]; first compound 4 µM): 0.918
- relative viability ([21]; first compound 0.04 µM): 0.728
- relative viability ([21]; first compound 0.1265 µM): 0.708
- relative viability ([21]; first compound 0.4 µM): 0.674
- relative viability ([21]; first compound 1.265 µM): 0.718
- relative viability ([21]; first compound 4 µM): 0.726
- relative viability ([22]; first compound 0.04 µM): 0.836
- relative viability ([22]; first compound 0.1265 µM): 0.842
- relative viability ([22]; first compound 0.4 µM): 0.804
- relative viability ([22]; first compound 1.265 µM): 0.735
- relative viability ([22]; first compound 4 µM): 0.701
